{"source": "patent US9035051B1", "about": "“Ghrelin O-acyl transferase inhibitor” (Eli Lilly and Company, priority 2013, dated 2015)", "key": {"human GOAT": {"target": "T1, human GOAT (Homo sapiens, UniProt Q96T53)", "T1 construct": "His; made in house; host or cells: Sf9 insect cells (baculovirus, pAN51 vector); used as microsomal membrane preparation", "T1 sequence (Q96T53 1-435)": "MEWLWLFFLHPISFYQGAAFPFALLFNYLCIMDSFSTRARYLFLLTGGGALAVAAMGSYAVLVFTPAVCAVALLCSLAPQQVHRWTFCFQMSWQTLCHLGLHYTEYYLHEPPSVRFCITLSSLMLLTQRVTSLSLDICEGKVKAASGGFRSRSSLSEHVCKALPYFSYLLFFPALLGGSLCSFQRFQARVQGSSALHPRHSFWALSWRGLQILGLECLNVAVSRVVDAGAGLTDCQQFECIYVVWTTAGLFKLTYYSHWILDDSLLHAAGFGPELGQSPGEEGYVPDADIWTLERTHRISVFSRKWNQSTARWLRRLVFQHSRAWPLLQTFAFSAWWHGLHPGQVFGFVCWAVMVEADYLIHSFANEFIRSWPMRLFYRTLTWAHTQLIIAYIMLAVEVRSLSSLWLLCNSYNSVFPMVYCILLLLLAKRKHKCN", "test": "In vitro cell free human GOAT enzymatic assay", "type": "biochemical", "details": "GOAT-His/sf9 microsomal membrane enzyme preparation; ELISA of acyl-ghrelin; n=5", "description": "Human GOAT gene (Accession number: NM_001100916) is subcloned to pAN51 baculoviral expression vector. Baculovirus stock is prepared following the Bac-to-Bac Protocol provided by the vendor, Invitrogen, California, USA. Five milliliters of human GOAT baculoviral stock are added to 500 mL Sf9 cells in HyQ SFX-Insect™ media (HyClone catalog number SH30278.02) at the density of 1×10^6 cells per milliliter in a 2 L Erlenmeyer flask. The flask with human GOAT gene infected Sf9 cells is put on a plate shaker at 120 rpm at 28° C. for 48 h. After 48 h incubation, cells are centrifuged at 1,000×g for 10 min at 4° C. The cell pellets are collected and stored at −80° C. in a freezer until ready for further processing.\nOne gram cell pellets are suspended in 9 mL chilled homogenization buffer (50 mM Tris-HCl, 250 mM sucrose, adjusted to pH 7.5, and sterile filtered through 0.2 μm Millipore filter). The cell suspension is transferred to a Dounce glass homogenizer. Cell pellets are homogenized with 40 strokes on ice. The homogenate is centrifuged at 3,000 rpm in a Beckman swing bucket rotor at 4° C. for 10 min to remove unbroken cells. […]\nPrepare ELISA plates (STREPTAVIDIN SPECTRAPLATE™ 384, Perkin Elmer) by blocking with 2% Heat-Inactivated FBS in PBS (40 μL) (Invitrogen) blocking buffer for 3 h. […] Read plates at 450 nm using an Envision Multilabel plate reader. […]"}, "GOAT enzyme": {"target": "T2, GOAT enzyme (Mus musculus, UniProt P0C7A3)", "T2 construct": "endogenous in cells; host or cells: male C57BL/6 mice (whole animal, oral dosing; plasma AG/UAG read-out)", "T2 sequence (P0C7A3 1-435)": "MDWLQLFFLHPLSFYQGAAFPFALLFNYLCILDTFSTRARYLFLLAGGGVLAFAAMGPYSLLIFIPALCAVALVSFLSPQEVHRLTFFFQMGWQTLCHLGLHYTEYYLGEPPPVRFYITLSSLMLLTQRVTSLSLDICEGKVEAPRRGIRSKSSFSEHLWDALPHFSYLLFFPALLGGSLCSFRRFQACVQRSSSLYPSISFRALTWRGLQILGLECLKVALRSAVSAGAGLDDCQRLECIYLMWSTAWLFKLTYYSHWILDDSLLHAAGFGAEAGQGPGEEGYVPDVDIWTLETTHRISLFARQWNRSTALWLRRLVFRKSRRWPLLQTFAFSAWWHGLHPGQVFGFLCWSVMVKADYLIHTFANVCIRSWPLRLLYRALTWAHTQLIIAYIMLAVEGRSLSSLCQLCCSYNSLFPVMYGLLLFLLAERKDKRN", "test": "In vivo dose dependent 3 day BID study for GOAT inhibitor (plasma AG and UAG by ELISA)", "parameters": "species or system male C57BL/6 mice", "details": "3 days; for AG (% of control) / AG/Total-ghrelin (% of vehicle control) / UAG (% of vehicle control) / increase of UAG: plasma; for increase of UAG / decrease of plasma AG: vs vehicle; for reduction in AG to total ghrelin ratio: vs vehicle-treated control animals", "description": "Comparing the change in the ratio of AG to total ghrelin in the compound treated group and that of the vehicle treated group reflects the degree of GOAT enzyme inhibition in vivo, due to the dynamic processing of UAG to AG by the GOAT enzyme. In the in vivo pharmacodynamic studies herein, the levels of AG and UAG in plasma and stomach in the vehicle and compound treated groups are measured by ELISA specifically to these two analytes. The total ghrelin level of each sample is computed as the sum of AG and UAG by these ELISA measurements. The ratio of AG to total ghrelin is defined by the level of AG in each sample divided by the level of total ghrelin in the same sample. The levels of AG, UAG and ratio of AG to total ghrelin in the vehicle treated group is computed and set as 100%. The relative change of these parameters in the compound treated group is then computed to determine the effectiveness of the test compound.\nPurchase male C57BL/6 mice from Harlan (Indianapolis, Ind.) at 9 weeks of age. House the mice individually in a temperature-controlled (24° C.) facility with a 12 h light/dark cycle (lights on 2200 h), and allow free access to a standard rodent chow (diet 2014, Harlan) and water. Typically, use the mice when they are 10-13 weeks of age at the time of the study. On day 0 of the experiment, randomize the mice into treatment groups (N=7/group) so each group has similar mean body weights. On day 1 and day 2, treat the animals with vehicle (1% hydroxyethylcellulose, 0.25% Tween 80, 0.05% antifoam) or test compound prepared in the vehicle as suspension at various dosages by oral gavage at 7 am and 7 pm. On day 3, fast the animals, move them into clean cages and dose with vehicle or the test compound again at 8 am by oral gavage. That same day at 1 pm, sacrifice the animals by decapitation to collect blood. For details of blood collection and plasma treatments see Blood collection and Extraction of Ghrelin from Plasma section below.\nCollect approximately 600 μL blood into a pre-weighed EDTA tube containing 600 μL (defined as Vpreservative) freshly-prepared preservative (4 mM PEFABLOC® [4-(2-aminoethyl) benzenesulfonyl fluoride hydrochloride], 72 mM NaCl, 58 mM NaF, 0.032 N hydrochloric acid, pH 3.0) and mix immediately. Weigh the tube again and keep on ice. To accurately determine the exact blood volume of each sample using this blood collection procedure, the weight of the blood for each mouse is computed using the following equation: Weight of Blood=(Weight of the tube containing Blood+preservative)−(Weight of the tube containing preservative) Blood volume(Vblood)=(Weight of blood)/1.06\nWithin 15 minutes after the blood collection, samples are centrifuged at 5000 rpm at 4° C. for 8 min Remove plasma (650 μL) to a 5 mL glass tube containing 1 N hydrochloric acid (65 μL), mix and keep on ice.\nAG and UAG are extracted from plasma using SEP-PAK®_C18 column to remove interference prior to performing the ELISA. The solid phase extraction of AG and UAG peptides by SEP-PAK®_C18 columns can be performed on a vacuum manifold (Waters Corp) or using a peristaltic pump. The sample SEP-PAK®_column extraction procedure is independently applied to the plasma sample obtained from each individual mouse. The general extraction protocol is described as follows.\nAll solutions used for the entire protocol of the SEP-PAK® column extraction should be at ice cold condition. Wet SEP-PAK®_columns (WAT054960, Waters Corp, Milford Mass.) with 99.9% ACN/0.1% TFA (1 mL of solution of 100 mL ACN/0.1 mL TFA). […] Once liquid is removed from the column, stop the pressure. Equilibrate the columns with 3% ACN/0.1% TFA (1 mL of 97 mL water, 3 mL ACN, 0.1 mL TFA). […] Dilute approximately 650 μL acidified plasma (defined as Vplasma added to column) to 1.4 mL ice cold 0.1% TFA. Load all diluted acidified plasma from the previous step onto the columns. […] Wash with 3% ACN/0.1% TFA (0.9 mL of 97 mL water, 3 mL ACN, 0.1 mL TFA). […] Repeat the wash two more times. […]"}}}
{"molecule": "Cc1nc(N)c(CCC2CCN(C(=O)[C@H](C)NC(=O)C3CC3)CC2)c(Cl)n1", "note": "[Example 1, N-[(1S)-2-[4-[2-(4-Amino-6-chloro-2-methyl-pyrimidin-5-yl)ethyl]-1-piperidyl]-1-methyl-2-oxo-ethyl]cyclopropanecarboxamide]", "values": [{"measurement": "IC50", "setting": "human GOAT", "value": "~192", "unit": "nM"}, {"measurement": "AG (% of control)", "setting": "GOAT enzyme; 0.3 mg/kg oral gavage BID", "value": "101 ± 025 % of control"}, {"measurement": "AG/Total-ghrelin (% of vehicle control)", "setting": "GOAT enzyme; 0.3 mg/kg oral gavage BID", "value": "61 ± 04 % of vehicle control"}, {"measurement": "UAG (% of vehicle control)", "setting": "GOAT enzyme; 0.3 mg/kg oral gavage BID", "value": "224 ± 035 % of vehicle control"}, {"measurement": "increase of UAG", "setting": "GOAT enzyme; 0.3 mg/kg oral gavage BID", "value": 2.24, "unit": "fold"}, {"measurement": "decrease of plasma AG", "setting": "GOAT enzyme; 0.3 mg/kg oral gavage BID", "value": "−1", "unit": "%"}, {"measurement": "reduction in AG to total ghrelin ratio", "setting": "GOAT enzyme; 0.3 mg/kg oral gavage BID", "value": 39, "unit": "%"}, {"measurement": "AG (% of control)", "setting": "GOAT enzyme; 1 mg/kg oral gavage BID", "value": "95 ± 018 % of control"}, {"measurement": "AG/Total-ghrelin (% of vehicle control)", "setting": "GOAT enzyme; 1 mg/kg oral gavage BID", "value": "46 ± 011 % of vehicle control"}, {"measurement": "UAG (% of vehicle control)", "setting": "GOAT enzyme; 1 mg/kg oral gavage BID", "value": "282 ± 045 % of vehicle control"}, {"measurement": "increase of UAG", "setting": "GOAT enzyme; 1 mg/kg oral gavage BID", "value": 2.82, "unit": "fold"}, {"measurement": "decrease of plasma AG", "setting": "GOAT enzyme; 1 mg/kg oral gavage BID", "value": 5, "unit": "%"}, {"measurement": "reduction in AG to total ghrelin ratio", "setting": "GOAT enzyme; 1 mg/kg oral gavage BID", "value": 54, "unit": "%"}, {"measurement": "AG (% of control)", "setting": "GOAT enzyme; 3 mg/kg oral gavage BID", "value": "55 ± 06 % of control"}, {"measurement": "AG/Total-ghrelin (% of vehicle control)", "setting": "GOAT enzyme; 3 mg/kg oral gavage BID", "value": "29 ± 04 % of vehicle control"}, {"measurement": "UAG (% of vehicle control)", "setting": "GOAT enzyme; 3 mg/kg oral gavage BID", "value": "253 ± 031 % of vehicle control"}, {"measurement": "increase of UAG", "setting": "GOAT enzyme; 3 mg/kg oral gavage BID", "value": 2.53, "unit": "fold"}, {"measurement": "decrease of plasma AG", "setting": "GOAT enzyme; 3 mg/kg oral gavage BID", "value": 45, "unit": "%"}, {"measurement": "reduction in AG to total ghrelin ratio", "setting": "GOAT enzyme; 3 mg/kg oral gavage BID", "value": 71, "unit": "%"}, {"measurement": "AG (% of control)", "setting": "GOAT enzyme; 10 mg/kg oral gavage BID", "value": "52 ± 010 % of control"}, {"measurement": "AG/Total-ghrelin (% of vehicle control)", "setting": "GOAT enzyme; 10 mg/kg oral gavage BID", "value": "23 ± 04 % of vehicle control"}, {"measurement": "UAG (% of vehicle control)", "setting": "GOAT enzyme; 10 mg/kg oral gavage BID", "value": "289 ± 044 % of vehicle control"}, {"measurement": "increase of UAG", "setting": "GOAT enzyme; 10 mg/kg oral gavage BID", "value": 2.89, "unit": "fold"}, {"measurement": "decrease of plasma AG", "setting": "GOAT enzyme; 10 mg/kg oral gavage BID", "value": 48, "unit": "%"}, {"measurement": "reduction in AG to total ghrelin ratio", "setting": "GOAT enzyme; 10 mg/kg oral gavage BID", "value": 77, "unit": "%"}]}
